Test results taken from ChEMBL document CHEMBL3112467, “In vitro phenotypic screening of 7-chloro-4-amino(oxy)quinoline derivatives as putative anti-Trypanosoma cruzi agents” (Bioorg Med Chem Lett, 2014).
pIC50: −log10 of the molar value.

Experiments:
[1] = Cytotoxicity against mouse NCTC-929 cells after 48 hrs by resazurin staining-based fluorescence assay; type: cell-based; conditions: read-out: LC50
[2] = Selectivity index, ratio of LC50 for mouse NCTC-929 cells to IC50 for epimastigote stage of Trypanosoma cruzi CL Brener; type: toxicity, cell-based; conditions: read-out: Ratio LC50/IC50
[3] = system: Trypanosoma cruzi; experiment: Antimicrobial activity against epimastigote stage of Trypanosoma cruzi CL Brener assessed as growth inhibition at […] after 72 hrs by beta-galactosidase reporter gene assay; type: functional; conditions: read-out: GI
[4] = system: Trypanosoma cruzi; experiment: Antimicrobial activity against epimastigote stage of Trypanosoma cruzi CL Brener assessed as growth inhibition after 72 hrs by beta-galactosidase reporter gene assay; type: functional, organism-based
[5] = system: Trypanosoma cruzi; experiment: Antimicrobial activity against amastigote stage of Trypanosoma cruzi CL Brener infected in mouse NCTC-929 cells assessed as growth inhibition at 1 uM after 7 days by beta-galactosidase reporter gene assay; type: functional; conditions: NCTC-929, 168 h, read-out: GI
[6] = system: Trypanosoma cruzi; experiment: Antimicrobial activity against amastigote stage of Trypanosoma cruzi CL Brener infected in mouse NCTC-929 cells assessed as growth inhibition at 8 uM after 7 days by beta-galactosidase reporter gene assay; type: functional; conditions: NCTC-929, 168 h, read-out: GI
[7] = system: Trypanosoma cruzi; experiment: Antimicrobial activity against amastigote stage of Trypanosoma cruzi CL Brener infected in mouse NCTC-929 cells assessed as growth inhibition at 16 uM after 7 days by beta-galactosidase reporter gene assay; type: functional; conditions: NCTC-929, 168 h, read-out: GI
[8] = system: Trypanosoma cruzi; experiment: Antimicrobial activity against amastigote stage of Trypanosoma cruzi CL Brener infected in mouse NCTC-929 cells assessed as growth inhibition at 0.5 uM after 7 days by beta-galactosidase reporter gene assay; type: functional; conditions: NCTC-929, 168 h, read-out: GI
[9] = Cytotoxicity against mouse NCTC-929 cells at […] after 48 hrs by resazurin staining-based fluorescence assay; type: cell-based; conditions: read-out: INH
[10] = system: Trypanosoma cruzi; experiment: Antimicrobial activity against amastigote stage of Trypanosoma cruzi CL Brener infected in mouse NCTC-929 cells assessed as growth inhibition after 7 days by beta-galactosidase reporter gene assay; type: functional, organism-based; conditions: NCTC-929, 168 h
[11] = system: Trypanosoma cruzi; experiment: Antimicrobial activity against amastigote stage of Trypanosoma cruzi CL Brener infected in mouse NCTC-929 cells assessed as growth inhibition at 4 uM after 7 days by beta-galactosidase reporter gene assay; type: functional; conditions: NCTC-929, 168 h, read-out: GI
[12] = system: Trypanosoma cruzi; experiment: Antimicrobial activity against amastigote stage of Trypanosoma cruzi CL Brener infected in mouse NCTC-929 cells assessed as growth inhibition at 2 uM after 7 days by beta-galactosidase reporter gene assay; type: functional; conditions: NCTC-929, 168 h, read-out: GI
[13] = system: Trypanosoma cruzi; experiment: Antimicrobial activity against amastigote stage of Trypanosoma cruzi CL Brener infected in mouse NCTC-929 cells assessed as growth inhibition at 32 uM after 7 days by beta-galactosidase reporter gene assay; type: functional; conditions: NCTC-929, 168 h, read-out: GI
[14] = in vitro; conditions: mouse, NCTC-929 cells
Description: Selectivity index, ratio of LC50 for mouse NCTC-929 cells to IC50 for amastigote stage of Trypanosoma cruzi CL Brener infected in mouse NCTC-929 cells

SMILES	CC50 at 48 h [1]	selectivity ratio [2]	inhibition of growth at […] [3]	pIC50 [4]	inhibition of growth at 1 µM [5]	inhibition of growth at 8 µM [6]	inhibition of growth at 16 µM [7]	inhibition of growth at 0.5 µM [8]	cytotoxicity at 48 h, […] [9]	pIC50 [10]	inhibition of growth at 4 µM [11]	inhibition of growth at 2 µM [12]	inhibition of growth at 32 µM [13]	selectivity ratio [14]
O=C1CSC(c2ccc3c(c2)OCO3)N1CCNc1ccnc2cc(Cl)ccc12 (stereo unspecified)	19.5 µM	2.85	84.3%	5.16										
CC1CS(=O)(=O)CCN1/N=C/c1ccc([N+](=O)[O-])o1 (stereo unspecified) [NIFURTIMOX]			100%		100%	100%	100%	96.5%	26.8%	> 6.30	100%	100%	100%	
O=C(Cn1ccnc1[N+](=O)[O-])NCc1ccccc1 [BENZNIDAZOLE]	> 256 µM	> 9.44	82%		55.6%	96.6%	100%	41.6%	17.4%		74.7%	64.4%	100%	> 320
Clc1ccc2c(NCc3ccccc3)ccnc2c1	2.28 µM	3.71	95.1%	5.18					71.4%					
